Test systems include EKVX NSCLC; UACC-257 melanoma; IGROV1 ovarian; SF-539 CNS; SK-MEL-28 melanoma; UACC-62 melanoma; M14 melanoma; SR leukemia; COLO 205 colon; MDA-MB-231 breast; DU-145 prostate; HS 578T breast.
What all share (assay): NCI tumour cell line growth inhibition, 48 h

In PubChem BioAssay (NCI) one finds TGI data, which are given here for 14 compounds.

The structures appear in SMILES notation.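 Five compound concentrations were applied to cells in 96-well plates for 48 hours; endpoints were derived by simple linear interpolation of the resulting dose-response curve. TGI is the concentration that stops growth completely.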 Bounds are passed on as bounds.

Turning to `CN1CCOC(c2ccccc2)O1` (configuration not stated), the TGI with EKVX NSCLC, in the assay on UACC-257 melanoma, in the assay on IGROV1 ovarian, in the assay on SF-539 CNS, with SK-MEL-28 melanoma and in the assay with UACC-62 melanoma was greater than 100 µM each time. For the same compound, the TGI in the assay with M14 melanoma, in the assay with SR leukemia and in the assay on COLO 205 colon was greater than 100 µM each time.
In the case of `COc1ccc(S(=O)(=O)c2nnc(S(=O)(=O)Cc3ccccc3)s2)cc1`, the TGI with EKVX NSCLC amounted to 57.2 µM; in the assay on UACC-257 melanoma, 31.4 µM; in the assay with MDA-MB-231 breast, 62.3 µM; in the assay on DU-145 prostate, 33 µM; in the assay with SF-539 CNS, 50.1 µM; in the assay on SK-MEL-28 melanoma, 40.3 µM. Besides, the TGI worked out at 33.1 µM in the assay with M14 melanoma, 43 µM in the assay with HS 578T breast and 28.5 µM in the assay with COLO 205 colon.
With `O=[N+]([O-])c1ccc2c(c1)C1=C(CO2)Cc2ccccc2O1`, the TGI in the assay with EKVX NSCLC was greater than 100 µM; in the assay on UACC-257 melanoma it was 33.5 µM; with IGROV1 ovarian, 55.4 µM; in the assay with MDA-MB-231 breast, 51.4 µM; in the assay with DU-145 prostate, greater than 100 µM; with SF-539 CNS, 52.2 µM. Besides, the TGI with UACC-62 melanoma was 50.7 µM; with M14 melanoma it was 37.4 µM; with SR leukemia, greater than 100 µM; with COLO 205 colon it was 30.6 µM.
Consider `CN(C)CCC(=O)c1ccccc1`, for which the TGI was greater than 68.8 µM with EKVX NSCLC; greater than 59 µM in the assay on UACC-257 melanoma; greater than 71 µM in the assay on IGROV1 ovarian; greater than 70.3 µM in the assay on SF-539 CNS; greater than 67.4 µM in the assay with SK-MEL-28 melanoma; greater than 68.1 µM with UACC-62 melanoma. The TGI with M14 melanoma was 52.6 µM; with SR leukemia, 57.4 µM; with COLO 205 colon, greater than 57.2 µM.
In the case of `CCCCCCOC(=O)/C=C/[C@]1(CO)C/C(=C/CC(C(C)C)C(C)C)C(=O)O1`, the TGI is 13.4 µM in the assay with EKVX NSCLC; 31.6 µM with UACC-257 melanoma; 28.9 µM in the assay on IGROV1 ovarian; 37 µM with DU-145 prostate; 23.2 µM with SK-MEL-28 melanoma; 27.3 µM in the assay with UACC-62 melanoma. The TGI in the assay on M14 melanoma stood at 25.1 µM; with HS 578T breast it was 22.1 µM.
Regarding `O=C(Nc1nc(C23CC4CC(CC(C4)C2)C3)cs1)c1cc2ccc(O)cc2oc1=O`, the TGI in the assay on EKVX NSCLC is 43.3 µM; in the assay with UACC-257 melanoma, 44.1 µM; with IGROV1 ovarian, 33 µM; in the assay on MDA-MB-231 breast it was 48.7 µM; with DU-145 prostate, greater than 100 µM; in the assay on SF-539 CNS, 86.6 µM. Further, the results for the TGI with SK-MEL-28 melanoma, in the assay on HS 578T breast and in the assay with COLO 205 colon were 47 µM, 37.8 µM and 50.4 µM, respectively.
Regarding `COC1(OC)C(N(C)C)=C(Cl)C(=O)/C1=C/C=O`, the TGI with UACC-257 melanoma, in the assay with IGROV1 ovarian, in the assay on SK-MEL-28 melanoma, in the assay on UACC-62 melanoma, in the assay with M14 melanoma and with SR leukemia was greater than 100 µM throughout. The compound further registered a TGI in the assay on COLO 205 colon greater than 100 µM.
Take `COC(=O)c1cc2ccc(N)nc2[nH]c1=O`: the TGI with EKVX NSCLC, with UACC-257 melanoma, in the assay on IGROV1 ovarian, with MDA-MB-231 breast, with SF-539 CNS and in the assay on SK-MEL-28 melanoma was greater than 100 µM throughout. Further, the TGI with M14 melanoma and in the assay on COLO 205 colon was greater than 100 µM in each case.
For `CCC(C)OC(=O)/C(Br)=C1/OC(=O)c2ccccc2-c2ccccc21` (configuration not stated), the TGI is greater than 100 µM in the assay with EKVX NSCLC; greater than 100 µM in the assay on UACC-257 melanoma; greater than 100 µM in the assay with DU-145 prostate; 52.2 µM with SF-539 CNS; 86.7 µM in the assay on SK-MEL-28 melanoma; 57.5 µM with UACC-62 melanoma. The TGI in the assay with M14 melanoma is greater than 100 µM; in the assay with HS 578T breast, greater than 100 µM; with COLO 205 colon, 38.1 µM.
In the case of `CCCCNC(=S)Nc1nc(C(=O)NNC(=S)Nc2ccccc2)cs1`, the TGI in the assay with EKVX NSCLC was greater than 100 µM; with UACC-257 melanoma, greater than 100 µM; in the assay on MDA-MB-231 breast it was 87.2 µM; with DU-145 prostate, greater than 100 µM; with SF-539 CNS it was greater than 100 µM; in the assay with UACC-62 melanoma it was greater than 100 µM. Also, the TGI with M14 melanoma and in the assay with COLO 205 colon was greater than 100 µM in each case.
For the compound `S=c1sc2c(Cl)nc(Cl)nc2n1-c1ccccc1`, the TGI in the assay with EKVX NSCLC is greater than 100 µM; in the assay with UACC-257 melanoma, greater than 100 µM; in the assay on IGROV1 ovarian it was 33.6 µM; with SF-539 CNS, greater than 100 µM; in the assay with SK-MEL-28 melanoma it was 29 µM; in the assay with UACC-62 melanoma, 27.8 µM. Besides, the figures for the TGI in the assay with M14 melanoma, in the assay with SR leukemia and with COLO 205 colon were 43 µM, 55.1 µM and greater than 100 µM, respectively.
In the case of `CN=C(N=Nc1c(O)[nH]c2ccccc12)SCC(=O)c1ccc(Br)cc1`, the TGI in the assay with EKVX NSCLC is greater than 62.8 µM; with UACC-257 melanoma, greater than 20 µM; in the assay on IGROV1 ovarian, greater than 100 µM; in the assay with MDA-MB-231 breast, 19.8 µM; in the assay with DU-145 prostate it was 30.5 µM; with SF-539 CNS, 23.8 µM. For the same compound, the TGI with SK-MEL-28 melanoma is greater than 78.1 µM; with UACC-62 melanoma, greater than 100 µM; in the assay with M14 melanoma, 39.3 µM; in the assay with HS 578T breast it was greater than 40 µM; with COLO 205 colon, greater than 100 µM.
With `CC1CCC(C(C)C)C(OC(=O)NCn2cc(-c3ccccc3)nn2)C1` (configuration not stated), the TGI in the assay with EKVX NSCLC, in the assay on UACC-257 melanoma, with IGROV1 ovarian, in the assay with MDA-MB-231 breast, in the assay with DU-145 prostate and with SF-539 CNS was greater than 100 µM throughout. For the same compound, the TGI with SK-MEL-28 melanoma, in the assay with M14 melanoma, in the assay on SR leukemia and in the assay on COLO 205 colon was greater than 100 µM in each case.
For `CC1CCC(=O)C(C(=O)CC2CC(=O)N(C)C(=O)C2)C1` (configuration not stated), the TGI in the assay with EKVX NSCLC, in the assay with UACC-257 melanoma, in the assay with IGROV1 ovarian, in the assay on MDA-MB-231 breast, in the assay on DU-145 prostate and with SF-539 CNS was greater than 100 µM throughout. The TGI with SK-MEL-28 melanoma, with UACC-62 melanoma, in the assay on M14 melanoma, in the assay on HS 578T breast and with COLO 205 colon was greater than 100 µM throughout.
